pIC50: −log10 of the molar value.
What was measured:
Assay type in all cases: cell-based
IKZF3 = target: T1, IKZF3 (Homo sapiens, UniProt Q96SW2+Q9UKT9); experiment: Protein degradation assay (In-Cell Western), IKZF3; conditions: NCI-H929 cells, 24 hours
T1 construct: endogenous in cells; host or cells: NCI-H929
Method: (§1) NCI-H929 cells were inoculated into a 96-well plate at 100,000 cells per well and cultured overnight. Compounds at concentrations of 1600 nM, 400 nM, 100 nM, 25 nM, 6.25 nM, 1.56 nM, 0.39 nM, and 0.1 nM were dosed with duplicate wells, and the cells were incubated in an incubator at 37° C. for 24 hours. After the incubation, the supernatant was removed by centrifugation, and 150 μL of 4% paraformaldehyde was added. The cells were incubated at room temperature for 20 minutes, then, 200 μL of a washing solution (0.1% TritonX-100, Beyotime; ST1722) was added and incubated at room temperature on a shaker. After repeating the washing four times, 150 μL of a Licor INTERCEPT blocking solution (Lico, Cat No. 927-70001) was added, and the cells were incubated on a shaker at room temperature for 1.5 hours. Antibodies IKZF1 (Cell Signaling; Cat No. 14859S), IKZF3 (Cell Signaling; Cat No. 15103S), GSPT1 (Proteintech, Cat No. 10763-1-AP), CK1a (Thermo; 7117067), and SALL4 (Abcam, ab22675) were diluted with an antibody dilution solution (Intercept Blocking Buffer, LI-COR, 211114) at 1:100 and 50 μL of each diluted primary antibody was added into the 96-well plate. The cells were incubated overnight on a shaker at 4° C. After the primary antibodies were removed and repeated washing was performed with PBST for 4 times, 50 μL of a diluted secondary antibody (Licor, Cat No. 926-68070) was added, and IRDye 800CW and IRDye 680CW were added at 0.5 μL simultaneously. The secondary antibody was sucked away, PBST was added, repeated washing was performed on a shaker at room temperature for 4 times, and a signal intensity was detected using an infrared laser imaging system (Lico, Odyssey-CLx).

IKZF1 = target: T2, IKZF1 (Homo sapiens, UniProt Q13422+Q96SW2); experiment: Protein degradation assay (In-Cell Western), IKZF1; conditions: NCI-H929 cells, 24 hours
T2 construct: NCI-H929 cells were inoculated into a 96-well plate at 100,000 cells per well and cultured overnight; endogenous in cells; host or cells: NCI-H929
T2 sequence (Q13422 whole entry): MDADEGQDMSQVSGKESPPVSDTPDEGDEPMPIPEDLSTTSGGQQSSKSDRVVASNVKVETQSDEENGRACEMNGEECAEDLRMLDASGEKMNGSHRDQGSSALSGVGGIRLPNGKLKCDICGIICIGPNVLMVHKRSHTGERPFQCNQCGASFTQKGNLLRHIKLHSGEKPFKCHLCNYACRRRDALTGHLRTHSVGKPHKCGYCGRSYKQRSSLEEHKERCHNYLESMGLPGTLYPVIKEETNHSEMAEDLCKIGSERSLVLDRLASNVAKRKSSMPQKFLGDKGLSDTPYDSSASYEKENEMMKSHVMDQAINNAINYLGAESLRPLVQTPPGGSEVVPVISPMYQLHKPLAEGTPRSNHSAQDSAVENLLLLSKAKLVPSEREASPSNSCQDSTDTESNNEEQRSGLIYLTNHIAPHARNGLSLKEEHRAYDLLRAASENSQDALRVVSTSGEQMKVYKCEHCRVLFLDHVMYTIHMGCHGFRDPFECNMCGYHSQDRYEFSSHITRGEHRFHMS
T2 sequence (Q96SW2 whole entry): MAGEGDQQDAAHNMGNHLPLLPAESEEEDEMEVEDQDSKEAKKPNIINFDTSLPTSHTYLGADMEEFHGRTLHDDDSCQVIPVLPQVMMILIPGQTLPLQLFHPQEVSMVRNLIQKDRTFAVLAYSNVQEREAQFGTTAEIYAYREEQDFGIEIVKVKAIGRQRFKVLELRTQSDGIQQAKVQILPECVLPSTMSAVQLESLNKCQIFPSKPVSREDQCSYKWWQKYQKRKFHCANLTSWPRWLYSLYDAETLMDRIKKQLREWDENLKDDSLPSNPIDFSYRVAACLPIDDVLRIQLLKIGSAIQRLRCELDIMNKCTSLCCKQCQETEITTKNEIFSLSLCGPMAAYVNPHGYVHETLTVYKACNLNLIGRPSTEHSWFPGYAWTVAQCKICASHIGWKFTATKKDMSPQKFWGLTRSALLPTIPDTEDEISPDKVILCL
T2 sequence (Q16531 whole entry partner): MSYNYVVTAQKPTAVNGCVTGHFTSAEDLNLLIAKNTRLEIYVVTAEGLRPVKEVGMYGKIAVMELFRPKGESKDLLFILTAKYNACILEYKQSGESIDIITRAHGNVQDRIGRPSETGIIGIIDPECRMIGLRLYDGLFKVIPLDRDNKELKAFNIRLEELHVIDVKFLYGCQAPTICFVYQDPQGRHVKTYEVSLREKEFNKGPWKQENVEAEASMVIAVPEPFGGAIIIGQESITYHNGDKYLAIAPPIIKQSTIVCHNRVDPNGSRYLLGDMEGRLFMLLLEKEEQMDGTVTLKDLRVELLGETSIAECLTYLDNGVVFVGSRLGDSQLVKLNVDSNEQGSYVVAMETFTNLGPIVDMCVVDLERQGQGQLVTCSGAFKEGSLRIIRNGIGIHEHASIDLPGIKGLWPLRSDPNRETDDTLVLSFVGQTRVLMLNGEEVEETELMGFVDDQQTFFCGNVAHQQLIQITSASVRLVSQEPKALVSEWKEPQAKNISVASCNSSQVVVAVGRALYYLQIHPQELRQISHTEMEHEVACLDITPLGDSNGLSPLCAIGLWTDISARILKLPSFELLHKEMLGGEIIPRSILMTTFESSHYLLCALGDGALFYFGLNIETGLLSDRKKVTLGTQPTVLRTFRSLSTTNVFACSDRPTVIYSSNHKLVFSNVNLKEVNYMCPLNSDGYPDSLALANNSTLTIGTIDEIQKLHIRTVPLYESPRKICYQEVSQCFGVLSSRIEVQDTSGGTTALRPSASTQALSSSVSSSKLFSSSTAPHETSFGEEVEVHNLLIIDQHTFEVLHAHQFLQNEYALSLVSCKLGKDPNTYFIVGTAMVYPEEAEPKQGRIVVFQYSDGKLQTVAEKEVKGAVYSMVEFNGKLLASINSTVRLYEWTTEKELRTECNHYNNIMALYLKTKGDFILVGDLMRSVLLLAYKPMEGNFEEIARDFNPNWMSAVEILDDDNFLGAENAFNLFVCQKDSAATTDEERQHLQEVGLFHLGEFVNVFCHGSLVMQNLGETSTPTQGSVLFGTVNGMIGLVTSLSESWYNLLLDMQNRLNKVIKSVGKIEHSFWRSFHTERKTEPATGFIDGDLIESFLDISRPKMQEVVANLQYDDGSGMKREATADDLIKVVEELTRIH
Method: as §1

[1] = test system: NCI-H929 multiple myeloma cells; experiment: Cell Titer-GLO (CTG) assay for proliferation of NCI-H929 cells; conditions: Homo sapiens, 72 hours
Procedure, shortened: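 NCI-H929 cells, 5000/well, treated next day with compound from 0.00512 to 400 nM (5-fold steps, duplicates) for 72 h at 37° C. Viability by CellTiter-Glo luminescence, normalised to 0.1% DMSO and medium blank; IC50 and maximal inhibition from nonlinear dose-response regression.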

T1 sequence (Q9UKT9 whole entry): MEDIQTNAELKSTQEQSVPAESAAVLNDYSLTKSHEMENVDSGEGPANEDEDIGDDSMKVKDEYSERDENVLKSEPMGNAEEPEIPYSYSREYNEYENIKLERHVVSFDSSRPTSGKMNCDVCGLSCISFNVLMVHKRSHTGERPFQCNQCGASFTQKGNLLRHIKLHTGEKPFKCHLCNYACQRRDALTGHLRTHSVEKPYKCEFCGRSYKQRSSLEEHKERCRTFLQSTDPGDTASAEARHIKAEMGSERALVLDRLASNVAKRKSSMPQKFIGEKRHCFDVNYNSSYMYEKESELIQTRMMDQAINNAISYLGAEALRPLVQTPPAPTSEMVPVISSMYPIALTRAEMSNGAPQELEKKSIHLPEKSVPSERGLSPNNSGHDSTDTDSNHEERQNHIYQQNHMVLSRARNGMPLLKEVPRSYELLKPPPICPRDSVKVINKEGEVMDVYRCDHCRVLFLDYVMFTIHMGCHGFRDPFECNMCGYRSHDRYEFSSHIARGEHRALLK
T1 sequence (Q96SW2 whole entry): as the sequence (Q96SW2 whole entry) above
T1 sequence (Q16531 whole entry partner): as the sequence (Q16531 whole entry partner) above

Row | DC50 (IKZF3) | Dmax (IKZF3) | DC50 (IKZF1) | Dmax (IKZF1) | pIC50 [1] | SMILES
1 | 0.12 nM | 71.4% | 0.31 nM | 75.8% | 10.52 | O=C1CC[C@H](N2Cc3c(OCc4ccc(CN5CCN(c6ccnc(-n7ccnc7)n6)CC5)cc4)cccc3C2=O)C(=O)N1 [Example 1, (S)-3-(4-((4-((4-(2-(1H-imidazol-1-yl)pyrimidin-4-yl)piperazin-1-yl)methyl)benzyl)oxy)-1-oxoisoindolin-2-yl)piperidin-2,6-dione]
2 | 0.05 nM | 76.6% | 0.081 nM | 73.6% | 11.52 | O=C1CCC(N2C(=O)c3cccc4c(Cc5ccc(CN6CCN(c7ccnc(-n8ccnc8)n7)CC6)cc5)ccc2c34)C(=O)N1 (stereo not shown) [Example 3, 3-(6-(4-((4-(2-(1H-imidazol-1-yl)pyrimidin-4-yl)piperazin-1-yl)methyl)benzyl)-2-oxobenzo[cd]indol-1(2H)-yl)piperidin-2,6-dione]
3 | 0.19 nM | 70.3% | 0.38 nM | 73.6% | 10.52 | O=C1CCC(N2C(=O)c3cccc4c(Cc5ccc(CN6CCN(C(=O)c7cccc(-n8ccnc8)n7)CC6)cc5)ccc2c34)C(=O)N1 (stereo not shown) [Example 4, 3-(6-(4-((4-(6-(1H-imidazol-1-yl)pyridin-2-carbonyl)piperazin-1-yl)methyl)benzyl)-2-oxobenzo[cd]indol-1(2H)-yl)piperidin-2,6-dione]
4 | 0.12 nM | 73.8% | 0.23 nM | 68.4% | 10.22 | O=C1CCC(N2C(=O)c3cccc4c(Cc5ccc(CN6CCN(C(=O)c7ccnc(-n8ccnc8)n7)CC6)cc5)ccc2c34)C(=O)N1 (stereo not shown) [Example 5, 3-(6-(4-((4-(2-(1H-imidazol-1-yl)pyrimidin-4-carbonyl)piperazin-1-yl)methyl)benzyl)-2-oxobenzo[cd]indol-1(2H)-yl)piperidin-2,6-dione]
5 | 0.16 nM | 75% | 0.34 nM | 77% | 11.00 | Cc1nc(N2CCN(Cc3ccc(Cc4ccc5c6c(cccc46)C(=O)N5[C@@H]4CCC(=O)NC4=O)cc3)CC2)cc(-n2cnc(C(F)(F)F)c2)n1 [Example 31, (R)-3-(6-(4-((4-(2-methyl-6-(4-(trifluoromethyl)-1H-imidazol-1-yl)pyrimidin-4-yl)piperazin-1-yl)methyl)benzyl)-2-oxobenzo[cd]indol-1(2H)-yl)piperidin-2,6-dione]
6 |  |  |  |  | 8.80 | CC(C)N1CCN=C1c1cccc(N2CCN(Cc3ccc(Cc4ccc5c6c(cccc46)C(=O)N5C4CCC(=O)NC4=O)cc3)CC2)n1 (stereo not shown) [Example 79, 3-(6-(4-((4-(6-(1-isopropyl-4,5-dihydro-1H-imidazol-2-yl)pyridin-2-yl)piperazin-1-yl)methyl)benzyl)-2-oxobenzo[cd]indol-1(2H)-yl)piperidin-2,6-dione]
7 |  |  |  |  | 9.40 | O=C1CC[C@H](N2Cc3c(OCc4ccc(CN5CCN(c6ccnc(-c7cncs7)n6)CC5)cc4)cccc3C2=O)C(=O)N1 [Example 80, (S)-3-(1-oxo-4-((4-((4-(2-(thiazol-5-vi)pyrimidin-4-yl)piperazin-1-yl)methyl)benzyl)oxy)isoindolin-2-yl)piperidin-2,6-dione]
8 |  |  |  |  | 10.70 | [2H]C([2H])(c1ccc(Cc2ccc3c4c(cccc24)C(=O)N3C2CCC(=O)NC2=O)cc1)N1CCN(c2cc(-n3cnc(C(F)(F)F)c3)nc(C)n2)CC1 (stereo not shown) [Example 82, 3-(6-(4-((4-(2-methyl-6-(4-(trifluoromethyl)-1H-imidazol-1-yl)pyrimidin-4-yl)piperazin-1-yl)methyl-d2)benzyl)-2-oxobenzo[cd]indol-1(2H)-yl)piperidin-2,6-dione]

— patent US20260272924A1, “ISOINDOLINE DERIVATIVE, BENZOINDOLE DERIVATIVE AND USE THEREOF” (SHANGHAI HELIOSON PHARMACEUTICAL CO., LTD., priority 2023, published 2026)
